Values of other authors in patent US20050032677A1, “Fungicidal and/or bactericidal composition, production process thereof and sterilization method using the composition” (priority 2001, published 2005).
Read-outs that look alike come from different tables or passages of the source. *1 amine or outer side, *2 acyl side, *3 side chain or, on linkers, in order; H or OH if unused. Where a SMILES comes first, the peptide text is derived from it. Bridges are numbered along the chain shown (N, C = ends). [ ]: non-standard residue; d: D form. X1 = CC(C)CCCCCCCCC[C@H](CC(=O)[*:1])O[*:2]

Key:
erythrocyte = settings: relative to mixing iturin and surfactin
mouse = settings: hypodermic injection to a mouse
erythrocyte membrane = settings: relative to mixing iturin and surfactin in the latter ratio (2:1)

In the case of `CC(C)CCCCCCCCC[C@@H]1CC(=O)N[C@@H](CCC(=O)O)C(=O)N[C@@H](CC(C)C)C(=O)N[C@H](CC(C)C)C(=O)N[C@@H](C(C)C)C(=O)N[C@@H](CC(=O)O)C(=O)N[C@H](CC(C)C)C(=O)N[C@@H](CC(C)C)C(=O)O1` [surfactin] (EL[dL]VD[dL]L; linker N-C via X1), the “critical micelle concentration (CMC)” value (aqueous solution) is given as 250 µM and the “critical micelle concentration (CMC)” value (in a 0.1M sodium hydrogencarbonate solution) is given as 10 µM.
For iturin, the “hemolysis activity relative to iturin and surfactin mixture” value (erythrocyte) is listed as “about one sixth”, the LD50 (mouse) is listed as 157 mg/kg and the “amount bound to the erythrocyte membrane relative to iturin:surfactin 2:1” value (erythrocyte membrane) is listed as “at most a half”. For the same compound, the “critical micelle concentration (CMC)” value (aqueous solution) was 40 µM.
